From patent publication US20090005364A1, “Azole Derivatives With Antimuscarinic Activity” (priority 2004, published 2009)

Experiments:
human M2-receptors = molecular target: T1, human M2-receptors (Homo sapiens, UniProt P08172); experiment: radioligand binding assay, M2 receptor ([3H]-N-methyl scopolamine); conditions: membranes of CHO-K1 cells expressing human M2; [3H]-N-methyl scopolamine 0.1-0.3 nM; 60 min, room temperature
T1 construct: expressed in transfected cells; host or cells: CHO-K1 clone cells; crude membrane fraction
T1 sequence (P08172 1-466): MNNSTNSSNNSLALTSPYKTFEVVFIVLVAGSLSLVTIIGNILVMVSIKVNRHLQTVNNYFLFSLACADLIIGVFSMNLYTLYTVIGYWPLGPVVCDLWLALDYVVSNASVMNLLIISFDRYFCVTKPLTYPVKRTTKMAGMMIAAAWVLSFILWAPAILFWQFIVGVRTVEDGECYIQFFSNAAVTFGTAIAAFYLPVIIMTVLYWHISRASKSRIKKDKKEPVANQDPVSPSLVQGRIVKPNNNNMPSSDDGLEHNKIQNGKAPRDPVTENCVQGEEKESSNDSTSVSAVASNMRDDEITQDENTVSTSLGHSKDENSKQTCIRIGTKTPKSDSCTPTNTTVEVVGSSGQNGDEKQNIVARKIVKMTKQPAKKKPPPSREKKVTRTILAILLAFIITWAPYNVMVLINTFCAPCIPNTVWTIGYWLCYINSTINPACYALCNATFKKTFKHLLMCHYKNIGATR
Protocol: (§1) Cell Lines and Membrane Preparations
(§2) CHO—K1 clone cells expressing the human M1, M2 or M3-receptors (Swissprot P11229, P08172, P20309 respectively) were harvested in Ca^++/Mg^++ free phosphate-buffered saline and collected by centrifugation at 1500 rpm for 3 min. The pellets were resuspended in ice cold buffer A (15 mM Tris-HCl pH 7.4, 2 mM MgCl2, 0.3 mM EDTA, 1 mM EGTA) and homogenized by a PBI politron (setting 5 for 15 s).
(§3) Radioligand Binding Conditions
(§4) The day of experiment, frozen membranes were resuspended in buffer C (50 mM Tris-HCl pH 7.4, 2.5 mM MgCl2, 1 mM EDTA). […] The non specific binding was determined in the presence of cold N-methyl scopolamine 10 μM. Samples (final volume 0.75 ml) were incubated at room temperature for 120 min for Ml, 60 min for M2 and 90 min for M3 binding assay. The reaction was terminated by rapid filtration through GF/B Unifilter plates and two washes (0.75 ml) with cold buffer C using a Packard Filtermate Harvester. Radioactivity on the filters was measured by a microplate scintillation counter TopCount NXT (Camberra Packard).

human M3-receptors = molecular target: T2, human M3-receptors (Homo sapiens, UniProt P20309); experiment: radioligand binding assay, M3 receptor ([3H]-N-methyl scopolamine); conditions: membranes of CHO-K1 cells expressing human M3; [3H]-N-methyl scopolamine 0.1-0.3 nM; 90 min, room temperature
T2 construct: expressed in transfected cells; host or cells: CHO-K1 clone cells; crude membrane fraction
Protocol: as §1, §2, §3, §4

T2 sequence (P20309 whole entry): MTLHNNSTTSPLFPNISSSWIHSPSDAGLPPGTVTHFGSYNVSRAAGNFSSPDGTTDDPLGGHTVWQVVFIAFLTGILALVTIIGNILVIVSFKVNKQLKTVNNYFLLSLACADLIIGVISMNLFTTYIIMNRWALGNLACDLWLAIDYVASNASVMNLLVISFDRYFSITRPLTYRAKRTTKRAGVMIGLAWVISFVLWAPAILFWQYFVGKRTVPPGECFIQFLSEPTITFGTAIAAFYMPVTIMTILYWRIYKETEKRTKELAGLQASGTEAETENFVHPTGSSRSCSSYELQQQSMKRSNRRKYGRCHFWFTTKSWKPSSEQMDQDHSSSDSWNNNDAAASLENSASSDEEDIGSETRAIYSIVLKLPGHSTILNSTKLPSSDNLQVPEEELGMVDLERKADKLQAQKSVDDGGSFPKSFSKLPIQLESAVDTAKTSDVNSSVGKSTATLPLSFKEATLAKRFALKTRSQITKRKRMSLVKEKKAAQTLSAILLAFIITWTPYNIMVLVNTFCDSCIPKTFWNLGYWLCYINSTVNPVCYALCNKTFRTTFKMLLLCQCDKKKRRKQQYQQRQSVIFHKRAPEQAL

In the case of Cc1cccc(CN2CCC(N3CC(c4ccccc4)(c4ccccc4)NC3=O)CC2)c1 [Compound 18i], the Ki (human M2-receptors) is reported as 224 nM.
Work on Cc1cccc(CN2CCC(N3CC(c4cccs4)(c4cccs4)NC3=O)CC2)c1 [Compound 18ag] yielded a Ki (human M2-receptors) of 107 nM.
O=C1NC(c2ccccc2)(C2CCCCC2)CN1C1CCN(Cc2ccccc2)CC1 (centres unmarked) [Compound 27c] gave a Ki (human M2-receptors) of 73.3 nM.
O=C1NC(c2ccc(F)cc2)(c2ccc(F)cc2)CN1C1CCN(Cc2cccc(Cl)c2)CC1 [Compound 18ab] showed a Ki (human M2-receptors) of 955 nM.
O=C1NC(c2ccc(F)cc2)(c2ccc(F)cc2)CN1C1CCN(Cc2cccc(F)c2)CC1 [Compound 18an] gave a Ki (human M2-receptors) of 1140 nM.
In the case of O=C1NC(c2cccs2)(c2cccs2)CN1C1CCN(Cc2ccccc2)CC1 [Compound 27i], the Ki (human M2-receptors) is reported as 96.8 nM.
In the case of O=C1NC(c2ccccc2)(c2ccccc2)CN1C1CCN(Cc2ccccc2)CC1 [Compound 27a, 3-(1-benzyl-piperidin-4-yl)-5 5-diphenyl-imidazolidin-2-one], the Ki (human M2-receptors) is reported as 80.1 nM.
C[N+]1(CC(=O)c2cccs2)CC[C@@H](N2CC(c3ccc(F)cc3)(c3ccc(F)cc3)NC2=O)C1 (some centres unmarked) [Compound 19bp] was tested, and the Ki (human M3-receptors) was 1.96 nM and the Ki (human M2-receptors) was 80.9 nM.
Compound O=C1NC(c2ccc(F)cc2)(c2ccc(F)cc2)CN1C1CCN(Cc2ccccc2)CC1 [Compound 27h] has a Ki (human M2-receptors) of 206 nM.
O=C1NC(c2ccccc2)(c2ccccc2)CN1C1CCN(Cc2cccc(Cl)c2)CC1 [Compound 18e] showed a Ki (human M2-receptors) of 327 nM.
With C[N+]1(CC(=O)c2cccs2)CC[C@@H](N2CC(c3ccc(F)cc3)(c3ccc(F)cc3)NC2=O)C1 (some centres unmarked) [Compound 19bq] the Ki (human M3-receptors) was 1.62 nM and the Ki (human M2-receptors) was 88.5 nM.
O=C1NC(c2cccs2)(c2cccs2)CN1C1CCN(Cc2cccc(F)c2)CC1 [Compound 18ad] showed a Ki (human M2-receptors) of 187 nM.
